Biological target: T1, KAT6A (Homo sapiens, UniProt Q92794)
T1 construct: expressed in transfected cells; host or cells: HeLa
Experiment: HiBit KAT6A Degradation Assessment
Assay type: cell-based
Conditions: HeLa cells with a HiBit tagged KAT6A; for Dmax: HeLa
Experimental: The degradation activity of compounds was evaluated by measuring levels of KAT6A protein using the HiBiT system. These studies were conducted in HeLa cells with a HiBit tagged KAT6A. Cells were maintained in a 37° C. incubator at 5% CO2 in EMEM or DMEM (ATCC, 30-2003) supplemented with 10% v/v FBS (Gibco, 26140-079) and 1% penicillin streptomycin. Cells were seeded in 384-well plates at a density of 2,000 cells/well. Compounds dissolved in DMSO were added in 9-point serial dilution. After 18-24 h of treatment, KAT6A levels were measured using the Nano-Glo® HiBiT Lytic Detection System (Promega catalog number N3030) per manufacturer's instructions. Luminescence signal was measured with a multimode plate reader (Envision 2105, Perkin Elmer or PHERAStar FSX, BMG Labtech). Luminescence values were normalized to background and DMSO controls to quantify KAT6A for each condition. Results were analyzed, and DC50 and Dmax values obtained using a four-parameter logistic curve fit. The results are summarized in Table 3 (18 h of treatment) and Table 4 (24 h of treatment).

T1 sequence (Q92794 whole entry): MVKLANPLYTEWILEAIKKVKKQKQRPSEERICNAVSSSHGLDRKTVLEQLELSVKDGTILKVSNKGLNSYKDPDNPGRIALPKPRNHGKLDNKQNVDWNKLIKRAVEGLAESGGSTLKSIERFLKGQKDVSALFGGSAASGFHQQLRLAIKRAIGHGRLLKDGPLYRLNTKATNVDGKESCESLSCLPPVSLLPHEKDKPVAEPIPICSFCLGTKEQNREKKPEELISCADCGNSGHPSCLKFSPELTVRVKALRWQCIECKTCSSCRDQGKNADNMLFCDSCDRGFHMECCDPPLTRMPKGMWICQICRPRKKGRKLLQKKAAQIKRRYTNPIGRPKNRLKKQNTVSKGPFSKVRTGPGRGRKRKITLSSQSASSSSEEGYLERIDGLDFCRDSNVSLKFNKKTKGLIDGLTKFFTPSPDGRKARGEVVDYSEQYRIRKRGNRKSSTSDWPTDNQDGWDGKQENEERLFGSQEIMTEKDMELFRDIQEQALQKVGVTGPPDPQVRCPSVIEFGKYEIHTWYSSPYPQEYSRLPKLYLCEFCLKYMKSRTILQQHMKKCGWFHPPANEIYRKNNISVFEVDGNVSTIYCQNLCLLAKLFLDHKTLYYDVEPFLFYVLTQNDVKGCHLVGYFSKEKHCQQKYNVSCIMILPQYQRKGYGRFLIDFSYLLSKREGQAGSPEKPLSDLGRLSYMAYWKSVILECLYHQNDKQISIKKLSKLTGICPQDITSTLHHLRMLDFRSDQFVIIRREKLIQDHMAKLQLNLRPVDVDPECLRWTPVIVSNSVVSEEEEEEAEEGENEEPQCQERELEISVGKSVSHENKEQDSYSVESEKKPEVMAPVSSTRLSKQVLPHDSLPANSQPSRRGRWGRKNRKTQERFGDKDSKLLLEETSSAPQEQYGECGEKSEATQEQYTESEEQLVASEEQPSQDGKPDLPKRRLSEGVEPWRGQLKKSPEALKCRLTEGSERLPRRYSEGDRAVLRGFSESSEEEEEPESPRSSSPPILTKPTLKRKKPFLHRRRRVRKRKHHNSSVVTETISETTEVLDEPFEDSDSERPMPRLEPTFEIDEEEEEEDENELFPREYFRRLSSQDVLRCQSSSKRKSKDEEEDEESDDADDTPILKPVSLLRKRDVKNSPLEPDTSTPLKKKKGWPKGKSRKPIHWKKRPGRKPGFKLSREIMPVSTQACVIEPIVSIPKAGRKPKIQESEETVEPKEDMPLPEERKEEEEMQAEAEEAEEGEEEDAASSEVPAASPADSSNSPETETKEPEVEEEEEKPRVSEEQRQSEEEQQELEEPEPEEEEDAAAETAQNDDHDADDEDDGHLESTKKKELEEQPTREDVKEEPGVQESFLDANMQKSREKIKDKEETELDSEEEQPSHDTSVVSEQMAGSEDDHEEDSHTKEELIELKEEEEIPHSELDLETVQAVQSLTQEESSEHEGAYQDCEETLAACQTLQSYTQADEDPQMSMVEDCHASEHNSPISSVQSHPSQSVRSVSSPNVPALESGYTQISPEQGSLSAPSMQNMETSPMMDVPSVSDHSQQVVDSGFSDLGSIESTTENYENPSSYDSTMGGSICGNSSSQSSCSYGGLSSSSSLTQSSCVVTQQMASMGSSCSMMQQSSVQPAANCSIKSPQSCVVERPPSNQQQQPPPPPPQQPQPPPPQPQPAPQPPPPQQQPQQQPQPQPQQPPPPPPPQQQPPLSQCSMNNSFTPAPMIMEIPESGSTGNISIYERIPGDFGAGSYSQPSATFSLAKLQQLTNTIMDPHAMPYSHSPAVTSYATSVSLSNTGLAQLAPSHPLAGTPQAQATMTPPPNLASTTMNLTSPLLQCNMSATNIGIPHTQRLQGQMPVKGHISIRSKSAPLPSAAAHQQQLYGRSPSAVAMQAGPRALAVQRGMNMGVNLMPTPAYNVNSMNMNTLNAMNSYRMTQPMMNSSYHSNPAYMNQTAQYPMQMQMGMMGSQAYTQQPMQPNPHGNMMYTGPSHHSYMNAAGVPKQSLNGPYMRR

SMILES	DC50 (18 h of treatment)	DC50 (24 h of treatment)	Dmax (18 h of treatment)	Dmax (24 h of treatment)
O=C1CC[C@H](N2Cc3cc(N4CC[C@@H](CN5CCC6(CC5)CN(c5cccc(S(=O)(=O)Nc7noc8cc(Cn9cccn9)c9c(c78)OCC9)c5)C6)C4)ccc3C2=O)C(=O)N1 [Example 1, N-(4-((1H-Pyrazol-1-yl)methyl)-2,3-dihydrobenzofuro[7,6-d]isoxazol-8-yl)-3-(7-(((S)-1-(2-((S)-2,6-dioxopiperidin-3-yl)-1-oxoisoindolin-5-yl)pyrrolidin-3-yl)methyl)-2,7-diazaspiro[3.5]nonan-2-yl)benzenesulfonamide]	< 10 nM	10 to 100 nM	> 75%	50 to 75%
O=C1CC[C@H](N2Cc3cc(N4CC[C@@H](CN5C[C@H]6CN(c7cccc(S(=O)(=O)Nc8noc9cc(Cn%10cccn%10)c%10c(c89)OCC%10)c7)C[C@@H]6C5)C4)ccc3C2=O)C(=O)N1 [Example 2, N-(4-((1H-Pyrazol-1-yl)methyl)-2,3-dihydrobenzofuro[7,6-d]isoxazol-8-yl)-3-((3aS,6aS)-5-(((S)-1-(2-((S)-2,6-dioxopiperidin-3-yl)-1-oxoisoindolin-5-yl)pyrrolidin-3-yl)methyl)hexahydropyrrolo[3,4-c]pyrrol-2(1H)-yl)benzenesulfonamide]	10 to 100 nM		> 75%	
O=C1CC[C@H](N2Cc3cc(N4CC[C@@H](CN5CCC6(CC5)CCN(c5cccc(S(=O)(=O)Nc7noc8cc(Cn9cccn9)c9c(c78)OCC9)c5)CC6)C4)ccc3C2=O)C(=O)N1 [Example 3, N-(4-((1H-Pyrazol-1-yl)methyl)-2,3-dihydrobenzofuro[7,6-d]isoxazol-8-yl)-3-(9-(((S)-1-(2-((S)-2,6-dioxopiperidin-3-yl)-1-oxoisoindolin-5-yl)pyrrolidin-3-yl)methyl)-3,9-diazaspiro[5.5]undecan-3-yl)benzenesulfonamide]	10 to 100 nM		> 75%	
O=C1CC[C@H](N2Cc3cc(N4CC[C@@H](CN5CC6(CCN(c7cccc(S(=O)(=O)Nc8noc9cc(Cn%10cccn%10)c%10c(c89)OCC%10)c7)CC6)C5)C4)ccc3C2=O)C(=O)N1 [Example 4, N-(4-((1H-Pyrazol-1-yl)methyl)-2,3-dihydrobenzofuro[7,6-d]isoxazol-8-yl)-3-(2-(((S)-1-(2-((S)-2,6-dioxopiperidin-3-yl)-1-oxoisoindolin-5-yl)pyrrolidin-3-yl)methyl)-2,7-diazaspiro[3.5]nonan-7-yl)benzenesulfonamide]	10 to 100 nM		> 75%	
O=C1CC[C@H](N2Cc3cc(N4CC[C@@H](CNC5CCN(c6cccc(S(=O)(=O)Nc7noc8cc(Cn9cccn9)c9c(c78)OCC9)c6)CC5)C4)ccc3C2=O)C(=O)N1 [Example 5, N-(4-((1H-Pyrazol-1-yl)methyl)-2,3-dihydrobenzofuro[7,6-d]isoxazol-8-yl)-3-(4-((((S)-1-(2-((S)-2,6-dioxopiperidin-3-yl)-1-oxoisoindolin-5-yl)pyrrolidin-3-yl)methyl)amino)piperidin-1-yl)benzenesulfonamide]			25 to 50%	
O=C1CCC(N2C(=O)c3ccc(N4CCC5(CC4)CC(N4CCN(c6cccc(S(=O)(=O)Nc7noc8cc(Cn9cccn9)c9c(c78)OCC9)c6)CC4)C5)cc3C2=O)C(=O)N1 (stereo not shown) [Example 6, N-(4-((1H-Pyrazol-1-yl)methyl)-2,3-dihydrobenzofuro[7,6-d]isoxazol-8-yl)-3-(4-(7-(2-(2,6-dioxopiperidin-3-yl)-1,3-dioxoisoindolin-5-yl)-7-azaspiro[3.5]nonan-2-yl)piperazin-1-yl)benzenesulfonamide]	100 to 1000 nM		50 to 75%	
O=C1CCC(N2C(=O)c3cccc(N4CCC(CN5CCN(c6cccc(S(=O)(=O)Nc7noc8cc(Cn9cccn9)c9c(c78)OCC9)c6)CC5)CC4)c3C2=O)C(=O)N1 (stereo not shown) [Example 7, N-(4-((1H-Pyrazol-1-yl)methyl)-2,3-dihydrobenzofuro[7,6-d]isoxazol-8-yl)-3-(4-((1-(2-(2,6-dioxopiperidin-3-yl)-1,3-dioxoisoindolin-4-yl)piperidin-4-yl)methyl)piperazin-1-yl)benzenesulfonamide]	100 to 1000 nM		50 to 75%	
O=C1CCC(N2C(=O)c3ccc(N4CCC(CN5CCC(CN6CCN(c7cccc(S(=O)(=O)Nc8noc9cc(Cn%10cccn%10)c%10c(c89)OCC%10)c7)CC6)CC5)C4)cc3C2=O)C(=O)N1 (stereo not shown) [Example 8, N-(4-((1H-Pyrazol-1-yl)methyl)-2,3-dihydrobenzofuro[7,6-d]isoxazol-8-yl)-3-(4-((1-((1-(2-(2,6-dioxopiperidin-3-yl)-1,3-dioxoisoindolin-5-yl)pyrrolidin-3-yl)methyl)piperidin-4-yl)methyl)piperazin-1-yl)benzenesulfonamide]	< 10 nM		> 75%	
O=C1CCC(N2C(=O)c3ccc(N4CCC(CN5CCC(CN6CCN(c7cccc(S(=O)(=O)Nc8noc9cc(Cn%10cccn%10)c%10c(c89)OCC%10)c7)CC6)CC5)CC4)cc3C2=O)C(=O)N1 (stereo not shown) [Example 9, N-(4-((1H-Pyrazol-1-yl)methyl)-2,3-dihydrobenzofuro[7,6-d]isoxazol-8-yl)-3-(4-((1-((1-(2-(2,6-dioxopiperidin-3-yl)-1,3-dioxoisoindolin-5-yl)piperidin-4-yl)methyl)piperidin-4-yl)methyl)piperazin-1-yl)benzenesulfonamide]	< 10 nM		50 to 75%	
COc1ccc(N2CC3(CCN(C[C@@H]4CCN(c5ccc6c(c5)CN([C@H]5CCC(=O)NC5=O)C6=O)C4)CC3)C2)c(OC)c1S(=O)(=O)Nc1noc2cc(Cn3cccn3)c3c(c12)OCC3 [Example 10, N-(4-((1H-Pyrazol-1-yl)methyl)-2,3-dihydrobenzofuro[7,6-d]isoxazol-8-yl)-3-(7-(((S)-1-(2-((S)-2,6-dioxopiperidin-3-yl)-1-oxoisoindolin-5-yl)pyrrolidin-3-yl)methyl)-2,7-diazaspiro[3.5]nonan-2-yl)-2,6-dimethoxybenzenesulfonamide]		< 10 nM		> 75%
COc1ccc(N2CC3(CCN(CC4CCN(c5ccc6c(c5)C(=O)N(C5CCC(=O)NC5=O)C6=O)CC4)CC3)C2)c(OC)c1S(=O)(=O)Nc1noc2cc(Cn3cccn3)c3c(c12)OCC3 (stereo not shown) [Example 11, N-(4-((1H-Pyrazol-1-yl)methyl)-2,3-dihydrobenzofuro[7,6-d]isoxazol-8-yl)-3-(7-((1-(2-(2,6-dioxopiperidin-3-yl)-1,3-dioxoisoindolin-5-yl)piperidin-4-yl)methyl)-2,7-diazaspiro[3.5]nonan-2-yl)-2,6-dimethoxybenzenesulfonamide]		< 10 nM		50 to 75%
COc1c(N2CC3(CCN(CC4CCN(c5ccc6c(c5)C(=O)N(C5CCC(=O)NC5=O)C6=O)CC4)CC3)C2)cccc1S(=O)(=O)Nc1noc2cc(Cn3cccn3)c3c(c12)OCC3 (stereo not shown) [Example 12, N-(4-((1H-Pyrazol-1-yl)methyl)-2,3-dihydrobenzofuro[7,6-d]isoxazol-8-yl)-3-(7-((1-(2-(2,6-dioxopiperidin-3-yl)-1,3-dioxoisoindolin-5-yl)piperidin-4-yl)methyl)-2,7-diazaspiro[3.5]nonan-2-yl)-2-methoxybenzenesulfonamide]		10 to 100 nM		> 75%
COc1c(N2CC3(CCN(C[C@@H]4CCN(c5ccc6c(c5)CN([C@H]5CCC(=O)NC5=O)C6=O)C4)CC3)C2)cccc1S(=O)(=O)Nc1noc2cc(Cn3cccn3)c3c(c12)OCC3 [Example 13, N-(4-((1H-Pyrazol-1-yl)methyl)-2,3-dihydrobenzofuro[7,6-d]isoxazol-8-yl)-3-(7-(((S)-1-(2-((S)-2,6-dioxopiperidin-3-yl)-1-oxoisoindolin-5-yl)pyrrolidin-3-yl)methyl)-2,7-diazaspiro[3.5]nonan-2-yl)-2-methoxybenzenesulfonamide]		< 10 nM		> 75%
COc1c(N2CC3(CCN(CC4CCN(c5cccc6c5C(=O)N(C5CCC(=O)NC5=O)C6=O)CC4)CC3)C2)cccc1S(=O)(=O)Nc1noc2cc(Cn3cccn3)c3c(c12)OCC3 (stereo not shown) [Example 14, N-(4-((1H-Pyrazol-1-yl)methyl)-2,3-dihydrobenzofuro[7,6-d]isoxazol-8-yl)-3-(7-((1-(2-(2,6-dioxopiperidin-3-yl)-1,3-dioxoisoindolin-4-yl)piperidin-4-yl)methyl)-2,7-diazaspiro[3.5]nonan-2-yl)-2-methoxybenzenesulfonamide]		< 10 nM		> 75%
O=C1CC[C@H](N2Cc3cc(N4CC[C@@H](CN5CCC6(CC5)CN(c5ccc(S(=O)(=O)Nc7noc8cc(Cn9cccn9)c9c(c78)OCC9)cc5)C6)C4)ccc3C2=O)C(=O)N1 [Example 15, N-(4-((1H-Pyrazol-1-yl)methyl)-2,3-dihydrobenzofuro[7,6-d]isoxazol-8-yl)-4-(7-(((S)-1-(2-((S)-2,6-dioxopiperidin-3-yl)-1-oxoisoindolin-5-yl)pyrrolidin-3-yl)methyl)-2,7-diazaspiro[3.5]nonan-2-yl)benzenesulfonamide]		10 to 100 nM		50 to 75%

— patent US20250161289A1, “KAT6 Targeting Compounds” (Prelude Therapeutics Incorporated, priority 2023, published 2025)
